The values below come from ChEMBL document CHEMBL4402609, “Optimization of Hydantoins as Potent Antimycobacterial Decaprenylphosphoryl-β-d-Ribose Oxidase (DprE1) Inhibitors” (J Med Chem, 2020).

The data set is described as follows: Lipophilicity, log D of compound at pH 7.4 by chromatographic method. Format: physicochemical. The note with it: buffer.

The term chromatographic logD denotes lipophilicity estimated from chromatographic retention. A higher chromatographic logD goes with higher lipophilicity. `CC1(c2ccc(S(N)(=O)=O)cc2)NC(=O)N(CC(=O)C23CC4CC(CC(C4)C2)C3)C1=O` (racemic) had a chromatographic logD of 2.52.
On to `CC1(c2ccc(S(=O)(=O)N3CCOCC3)cc2)NC(=O)N(CC(=O)c2ccc(F)cc2F)C1=O` (racemic), for which the chromatographic logD worked out at 4.39.
As for `Cc1cccc(C(=O)CN2C(=O)NC(C)(c3ccc(S(N)(=O)=O)cc3)C2=O)c1` (racemic), the chromatographic logD amounted to 3.36.
As for `CC1(c2ccc(S(N)(=O)=O)cc2)NC(=O)N(CC(=O)c2ccc(C(F)(F)F)cc2)C1=O` (racemic), the chromatographic logD worked out at 4.15.
In turn, `Cc1ccccc1C(=O)CN1C(=O)NC(C)(c2ccc(C#N)cc2)C1=O` (racemic) came in with a chromatographic logD of 4.73.
With `CC1(c2ccc(C(=O)O)cc2)NC(=O)N(CC(=O)c2ccc(F)cc2F)C1=O` (racemic), the chromatographic logD was found to be 1.49.
`CC1(c2ccc(S(N)(=O)=O)cc2)NC(=O)N(CC(=O)c2ccc(F)cc2O)C1=O` (racemic) came in with a chromatographic logD of 3.12.
In the case of `CC1(c2ccc(S(N)(=O)=O)cc2)NC(=O)N(CC(=O)c2ccccc2F)C1=O` (racemic) it was 2.94; in that of `CC1(c2ccc(C#N)cc2)NC(=O)N(CC(=O)c2ccccc2F)C1=O` (racemic), 4.3; in that of `CC1(c2ccc(C#N)cc2)NC(=O)N(CC(=O)c2ccc(Cl)s2)C1=O` (racemic), 4.85.
In the case of `CC1(c2ccc(S(N)(=O)=O)cc2)NC(=O)N(CC(=O)c2ccncc2)C1=O` (racemic) it was 2.46; in that of `CN(C)S(=O)(=O)c1ccc(C2(C)NC(=O)N(CC(=O)c3ccc(F)cc3F)C2=O)cc1` (racemic), 4.6.
`Cc1cccc(C(=O)CN2C(=O)NC(C)(c3ccc(C#N)cc3)C2=O)c1` (racemic) gave a chromatographic logD of 4.71.
The result for `CC1(c2ccc(S(N)(=O)=O)cc2)NC(=O)N(CC(=O)c2ccc(F)c(C(F)(F)F)c2)C1=O` (racemic) reads 4.24.
The compound `CC1(c2ccc(C#N)cc2)NC(=O)N(CC(=O)c2ccc(F)cc2O)C1=O` (racemic) gave a chromatographic logD of 4.56.
The result for `CC1(c2ccc(S(N)(=O)=O)cc2)NC(=O)N(CC(=O)c2nc3ccccc3s2)C1=O` (racemic) reads 3.78.
In the case of `CC1(c2ccc(S(=O)(=O)NCC(F)(F)F)cc2)NC(=O)N(CC(=O)c2ccc(F)cc2F)C1=O` (racemic) it was 4.78; in that of `CC1(c2ccc(S(N)(=O)=O)cc2)NC(=O)N(CC(=O)c2cccc(F)c2)C1=O` (racemic), 3.08; in that of `CC1(c2ccc(S(N)(=O)=O)cc2)NC(=O)N(CC(=O)c2cccc([N+](=O)[O-])c2)C1=O` (racemic), 2.77.
The result for `COc1ccccc1C(=O)CN1C(=O)NC(C)(c2ccc(S(N)(=O)=O)cc2)C1=O` (racemic) reads 2.98.
`CC1(c2ccc(S(N)(=O)=O)cc2)NC(=O)N(CC(=O)c2cccc(C(F)(F)F)c2)C1=O` (racemic) registered a chromatographic logD of 3.96.
As to `CC1(c2ccc(C#N)cc2)NC(=O)N(CC(=O)c2ccc(F)c(C(F)(F)F)c2)C1=O` (racemic), the chromatographic logD worked out at 5.38.
The compound `CC1(c2ccc(CS(C)(=O)=O)cc2)NC(=O)N(CC(=O)c2ccc(F)cc2F)C1=O` (racemic) registered a chromatographic logD of 3.54.
The result for `CC1(c2ccc(S(N)(=O)=O)cc2)NC(=O)N(CC(=O)c2ccc(C#N)cc2)C1=O` (racemic) reads 2.54; that for `CC(=O)CN1C(=O)NC(C)(c2ccc(S(N)(=O)=O)cc2)C1=O` (racemic), 0.54; that for `CC1(c2ccc(S(N)(=O)=O)cc2)NC(=O)N(CC(=O)c2ccccc2C(F)(F)F)C1=O` (racemic), 3.56.
In the case of `CC1(c2ccc(S(N)(=O)=O)cc2)NC(=O)N(CC(=O)c2cccc(OC(F)(F)F)c2)C1=O` (racemic) it was 4.14; in that of `CC1(c2ccc(C#N)cc2)NC(=O)N(CC(=O)c2ccccn2)C1=O` (racemic), 2.03.
In the case of `CC1(c2ccc(S(N)(=O)=O)cc2)NC(=O)N(CC(=O)c2ccc(F)c(Cl)c2)C1=O` (racemic), the chromatographic logD was 3.82.
Regarding `CC1(c2ccc(S(N)(=O)=O)cc2)NC(=O)N(CC(=O)c2ccccn2)C1=O` (racemic), the chromatographic logD was found to be 4.87.
`CC1(c2ccc(C#N)cc2)NC(=O)N(CC(=O)c2cccc(OC(F)(F)F)c2)C1=O` (racemic): the chromatographic logD worked out at 5.5.
The result for `Cc1ccccc1C(=O)CN1C(=O)NC(C)(c2ccc(S(N)(=O)=O)cc2)C1=O` (racemic) reads 3.3; that for `CC1(c2ccc(NC(N)=O)cc2)NC(=O)N(CC(=O)c2ccc(F)cc2F)C1=O` (racemic), 2.71.
For the compound `C[C@]1(c2ccc(S(N)(=O)=O)cc2)NC(=O)N(CC(=O)c2ccc(F)cc2F)C1=O`, the chromatographic logD worked out at 3.17.
The result for `CC1(c2ccc(S(N)(=O)=O)cc2)NC(=O)N(CC(=O)c2ccc(Cl)s2)C1=O` (racemic) reads 3.52.
In the case of `CC1(c2ccc(S(N)(=O)=O)cc2)NC(=O)N(CC(=O)c2ccccc2)C1=O` (racemic), the chromatographic logD stood at 2.81.
`CC1(c2ccc(N3CCCOC3=O)cc2)NC(=O)N(CC(=O)c2ccc(F)cc2F)C1=O` (racemic) came in with a chromatographic logD of 3.36.
`CC1(c2ccc3c(c2)NC(=O)CO3)NC(=O)N(CC(=O)c2ccc(F)cc2F)C1=O` (racemic) showed a chromatographic logD of 3.38.
`CC1(c2ccc(C#N)cc2)NC(=O)N(CC(=O)c2ccccc2)C1=O` (racemic) returned a chromatographic logD of 4.19.
The compound `Cc1ccc(C(=O)CN2C(=O)NC(C)(c3ccc(S(N)(=O)=O)cc3)C2=O)cc1` (racemic) had a chromatographic logD of 3.33.
`CC1(c2ccc(S(N)(=O)=O)cc2)NC(=O)N(CC(=O)c2ccc(F)c(F)c2)C1=O` (racemic) returned a chromatographic logD of 3.34.
The result for `C[C@@]1(c2ccc(S(N)(=O)=O)cc2)NC(=O)N(CC(=O)c2ccc(F)cc2F)C1=O` reads 3.17; that for `COC(=O)c1ccc(C2(C)NC(=O)N(CC(=O)c3ccc(F)cc3F)C2=O)cc1` (racemic), 4.84.
Take `CC1(c2ccc(NS(=O)(=O)c3ccccc3)cc2)NC(=O)N(CC(=O)c2ccc(F)cc2F)C1=O` (racemic): the chromatographic logD came out at 4.9.
The result for `CC1(c2ccc(S(N)(=O)=O)cc2)NC(=O)N(CC(=O)c2ccc3ccccc3c2)C1=O` (racemic) reads 3.93; that for `CC1(c2ccc(S(N)(=O)=O)cc2)NC(=O)N(CC(=O)C2CC2)C1=O` (racemic), 1.51.
On to `CC1(c2ccc(S(N)(=O)=O)cc2)NC(=O)N(CC(=O)c2cc(C(F)(F)F)cc(C(F)(F)F)c2)C1=O` (racemic), for which the chromatographic logD was 4.9.
In the case of `CC1(c2ccc(S(N)(=O)=O)cc2)NC(=O)N(CC(=O)c2ccc(F)cc2)C1=O` (racemic), the chromatographic logD is 3.03.
The result for `CC1(c2ccc(C#N)cc2)NC(=O)N(CC(=O)c2cccnc2)C1=O` (racemic) reads 1.16; that for `CC1(c2ccc(S(N)(=O)=O)cc2)NC(=O)N(CC(=O)c2ccc(Cl)cc2Cl)C1=O` (racemic), 4.11; that for `CC1(c2ccc(NS(=O)(=O)C(F)(F)F)cc2)NC(=O)N(CC(=O)c2ccc(F)cc2F)C1=O` (racemic), 3.24.
The result for `CC1(c2ccc(S(N)(=O)=O)cc2)NC(=O)N(CC(=O)c2cccs2)C1=O` (racemic) reads 2.35; that for `CC1(c2ccc(S(N)(=O)=O)cc2)NC(=O)N(CC(=O)c2cccc(Br)c2)C1=O` (racemic), 3.77; that for `CC1(c2ccc(S(=O)(=O)NC3CC3)cc2)NC(=O)N(CC(=O)c2ccc(F)cc2F)C1=O` (racemic), 4.48.
`CC1(c2ccc(C#N)cc2)NC(=O)N(CC(=O)c2ccncc2)C1=O` (racemic) displayed a chromatographic logD of 1.16.
`CC(C)(C)C(=O)Oc1cc(F)ccc1C(=O)CN1C(=O)NC(C)(c2ccc(C#N)cc2)C1=O` (racemic) showed a chromatographic logD of 5.84.
For `CC1(c2ccc(S(N)(=O)=O)cc2)NC(=O)N(CC(=O)C2CCCCC2)C1=O` (racemic), the chromatographic logD was found to be 3.62.
With `CC1(c2ccc(S(N)(=O)=O)cc2)NC(=O)N(CC(=O)c2nccs2)C1=O` (racemic), the chromatographic logD stood at 1.9.
In turn, `COc1cccc(C(=O)CN2C(=O)NC(C)(c3ccc(S(N)(=O)=O)cc3)C2=O)c1` (racemic) displayed a chromatographic logD of 3.
On to `CC1(c2ccc(S(N)(=O)=O)cc2)NC(=O)N(CC(=O)c2ncc(F)cc2F)C1=O` (racemic), for which the chromatographic logD stood at 2.39.
In turn, `CC1(c2ccc(S(=O)(=O)Nc3ccccc3)cc2)NC(=O)N(CC(=O)c2ccc(F)cc2F)C1=O` (racemic) had a chromatographic logD of 5.03.
The result for `Cc1ccc(C(=O)CN2C(=O)NC(C)(c3ccc(C#N)cc3)C2=O)cc1` (racemic) reads 4.73; that for `CC1(c2ccc(C#N)cc2)NC(=O)N(CC(=O)c2cccc(F)c2)C1=O` (racemic), 4.39.
Take `CC1(c2ccc(-c3nnn[nH]3)cc2)NC(=O)N(CC(=O)c2ccc(F)cc2F)C1=O` (racemic): the chromatographic logD is 1.85.
In the case of `CNS(=O)(=O)c1ccc(C2(C)NC(=O)N(CC(=O)c3ccc(F)cc3F)C2=O)cc1` (racemic), the chromatographic logD came to 3.88.
On to `CC1(c2ccc(S(N)(=O)=O)cc2)NC(=O)N(CC(=O)c2cccnc2)C1=O` (racemic), for which the chromatographic logD is 3.48.
The result for `CC1(c2ccc(S(N)(=O)=O)cc2)NC(=O)N(CC(=O)c2cccc(C#N)c2)C1=O` (racemic) reads 2.4; that for `COc1ccc(C(=O)CN2C(=O)NC(C)(c3ccc(S(N)(=O)=O)cc3)C2=O)cc1` (racemic), 2.86; that for `CC1(c2ccc(C(N)=O)cc2)NC(=O)N(CC(=O)c2ccc(F)cc2F)C1=O` (racemic), 2.68.
Take `CCCCS(=O)(=O)Nc1ccc(C2(C)NC(=O)N(CC(=O)c3ccc(F)cc3F)C2=O)cc1` (racemic): the chromatographic logD amounted to 4.96.
